From patent US5015661A, “Chromanes and their pharmaceutical compositions and methods” (Hoffmann-La Roche Inc., priority 1989, dated 1991)

Legend:
[1] = target: T1, Δ^5 -lipoxygenase from rat basophilic leukemia (RBL-1) cells (Rattus norvegicus, UniProt P12527); test: In vitro test for Δ^5 -lipoxygenase inhibitors (5-LO), RBL-1 cell enzyme, 5-HETE radioimmunoassay; type: biochemical; settings: RBL-1 5-LO; 10 min preincubation; 8.25 μM arachidonic acid, 10 min at 37° C.; 5-HETE formation; read-out: 5-LO IC-50
T1 construct: endogenous in cells; host or cells: RBL-1 rat basophilic leukemia cells (ATCC CRL 1378); 113,000×g supernatant (cytosolic fraction)
T1 sequence (P12527 1-673): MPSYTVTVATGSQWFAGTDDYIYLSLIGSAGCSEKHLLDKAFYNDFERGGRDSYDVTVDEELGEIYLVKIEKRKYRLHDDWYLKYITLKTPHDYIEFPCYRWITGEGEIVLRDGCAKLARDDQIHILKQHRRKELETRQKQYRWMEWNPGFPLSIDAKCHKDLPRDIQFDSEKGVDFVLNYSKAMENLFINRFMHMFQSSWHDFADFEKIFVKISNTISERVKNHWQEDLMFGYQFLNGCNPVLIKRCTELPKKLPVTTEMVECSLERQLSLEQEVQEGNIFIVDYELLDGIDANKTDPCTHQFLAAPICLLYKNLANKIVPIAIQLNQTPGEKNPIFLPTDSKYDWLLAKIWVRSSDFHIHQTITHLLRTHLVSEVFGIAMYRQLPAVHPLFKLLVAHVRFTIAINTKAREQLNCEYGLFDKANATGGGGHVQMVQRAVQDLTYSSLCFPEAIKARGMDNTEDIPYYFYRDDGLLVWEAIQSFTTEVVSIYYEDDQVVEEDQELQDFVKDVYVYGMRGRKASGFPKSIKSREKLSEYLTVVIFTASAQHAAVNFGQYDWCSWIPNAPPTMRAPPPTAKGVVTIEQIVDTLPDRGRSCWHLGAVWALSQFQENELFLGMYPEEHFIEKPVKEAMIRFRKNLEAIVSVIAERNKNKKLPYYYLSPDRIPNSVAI
Procedure: IN VITRO TEST FOR Δ^5 -LIPOXYGENASE INHIBITORS Compounds of formula I of the invention were tested for their effect on Δ^5 -lipoxygenase from rat basophilic leukemia (RBL-1) cells. Materials. RBL-1 cells (CRL 1378) were obtained from the American TYpe Culture Collection, Rockville, MD. DMEM and glutamine were purchased from Flow Labs, McLean, VA. FBS (Gibco, Grand Island, NY) was heat-inactivated for 1 hour at 56° C. Reagents for protein determinations were obtained from Biorad, Rockville Center, NY. Arachidonic acid (approx. 99%), ATP (disodium slat), BHT, dextran (clinical grade), tetrasodium EDTA, gelatin, gentamycin sulfate solution, reduced glutathione, 1 M HEPES buffer, indomethacin, NaCl, reduced NADpH, Trizma 7.2, and Trizma 8.5 were purchased from Sigma Chemical, St. Louis, MO. CaCl2 dihydrate, Norit A charcoal, and citric acid monohydrate were obtained from Fisher Scientific, Pittsburgh, PA. […] MA. A synthetic 5-HETE standard was supplied by Dr. M. Rosenberger, Dept. of Medicinal Chemistry, Hoffmann-La Roche, Nutley, NJ; [see Corey, E.J., and Hashimoto, S. (1981 ) Tet. Letters, 22, 299-302 for method of preparation]. Ecoscint liquid sointillation fluid was purchased from National Diagnostics, Sommerville, NJ. Isolation of 5-lipoxygenase. […] Approximately 7-9 days after thawing, RBL-1 cells growing in log phase were seeded at a density of 7500 viable cells/ml in a closed 89-liter spinner flask. The cells were stirred constantly for 3-4 days at 37° C. until they reached a density greater than 500,000/ml but less than 800,00/ml. RBL-1 cells were harvested by centrifugation at 4° C. at 1500×g for 10 minutes and were washed 3 times with ice cold 0.05 M tris-HCl, pH 7.2, tetrasodium EDTA (buffer 1). The cells were washed last in 0.05 M Tris-HCl containing 14 μM indomethacin, 1 mM glutathione, 1.5 mM NaCl, and 1 mM tetrasodium EDTA (buffer 2), resuspended at a density of 5×108'/ml (approximately 10 ml) and disrupted manually at 4° C. using a 40 ml Dounce (type A pestle) homogenizer. After 5 minutes of homogenization. 95% cell lysis was confirmed by phase contrast microscopy. The broken cells were diluted 1:2 with buffer 2 and centrifuged at 12,380×g for 10 minutes at 4° C. to pellet cellular debris and granules. The 12,380×g supernatant was centrifuged at 113,000×g for 60 minutes to pellet microsomes. The high-speed supernatant (5.9±0.48 mg/ml protein) was frozen immediately in 1 ml aliquots using a dry ice/acetone bath. The isolated cytosolic fraction was stored in liquid N2 for up to 8 weeks without loss of 5-LO enzyme activity. Lipoxygenase Assay. Compounds Were dissolved at 25 mM concentration in DMSO, then diluted to final concentrations using 95% ethanol. For a typical enzyme assay, the partially purified 5-LO preparation was preincubated with drug or vehicle for 10 minutes at 30° C. The assay tubes were then transferred at a 37° C. water bath where they received arachidonic acid (8.25 μM final concentration) to initiate 5-LO activity. In addition to enzyme and substrate, each reaction tube contained: 12.5 μmoles of Tris-HCl (pH 7.2), 25 nmoles glutathione, 0.35 nmoles indomethacin and 1.25 μmoles of CaCl2 and ATP to yield a total of volume of 250 μl. The enzyme reaction was terminated after 10 minutes by the addition of 75μl […] citric acid to yield pH 3.5. The samples were immediately cooled on ice and neutralized by dilution with 0.05 M Tris-HCl, pH 8.5, which contained 25 mg/1 BHT. A boiled cytosol control was placed at the end of each assay to measure non-enzymatic oxidation of arachidonic acid. The mean specific activity of the 5-LO enzyme preparation was approximately 66.16±14.39 pmol 5-HETE/min/mg protein. Radioimmunoassay for 5-HETE. Under the assay conditions described, the 5-LO catalyzed the conversion of arachidonic acid to 5-HPETE which, as a consequence o peroxidase activity, was reduced to 5-HETE. A specific radioimmunoassay was employed to quantitate the amount (pmoles) of 5-HETE formed during the enzyme reaction. […]

[2] = system: arachidonic acid-induced mouse ear edema; test: Mouse ear edema test (in vivo), arachidonic acid-induced; settings: 1 mg topical, CD-1 male mice, 0.5 mg arachidonic acid 0.5 or 4 hours later, ear biopsy weight after 1 hour, read-out: EAR EDEMA % INHIB. 1 mg
Procedure: MOUSE EAR EDEMA TEST (IN VIVO)
In this animal model system, the application of arachidonic acid to the ear results in the biosynthesis of the metabolic products […]-6,8,11,14-eicosatetraenoic acid (5-HETE), leukotriene B4 (LTB4), leukotriene C4 (LTC4), […]-5,8,10,14-eicosatetraenoic acid (12-HETE), and prostaglandin E2 (PGE2) at the site of application, followed by the influx of neutrophils into the site and the rapid development of edema within 30 to 60 minutes (See, for instance, Young, Wagner and Spries, "Tachyphylaxis in 12-O-Tetradecanoylphorbol Acetate And Arachidonic Acid-Induced Ear Edma," J. Invest. Dermatol. 80:48 (1983) and Hames, Opas and Bonney, "Arachidonic Acid MetaboIites in Mouse Ear Edma" Advances in Inflammation Research. 11:57 (1986).
CD-1 male mice weighing 15 to 25 g were employed, and they were designated as follows: (1) Control Group, in which no arachidonic acid or test compound was to be applied, (2) Arachidonic Acid-Treated Group, in which no test compound was to be applied, and (3) Treated Group, in which the test compound was to be applied first, followed by the application of arachidonic acid.
In the case of the Group (3) animals, the test compound, dissolved in acetone, was applied to the dorsal surface of the right ear of the mouse with a 25-microliter pipette or, with the dose of the test compound being varied. After 0.5 hours in some cases and 4 hours in others, the arachidonic acid was topically applied in the same manner as above to the pretreated ear areas. In each case of arachidonic acid application, an amount of 0.5 mg dissolved in 25 microliters of acetone was used. After 1 hour, the mice were sacrificed by carbon dioxide inhalation. A 6mm-diameter standard biopsy punch was used to obtain a uniform tissue sample from the ear of each mouse so treated, and the tissue samples were weighted to the nearest 0.1 mg. The percent inhibition of ear edema formation was calculated as follows: [formula]

Row | Compound | IC50 [1] | inhibition in vivo at 1 mg [2]
1 | COc1cc(C=O)cc2cc(C3(C)CCc4c(C)c(O)c(C)c(C)c4O3)oc12 (racemic) [Example 54, rac-2-(3,4-Dihydro-6-hydroxy-2,5,7,8-tetramethyl-2H-1-benzopyran-2-yl)-7-methoxy-5-benzofurancarboxaldehyde] | 1 nM | 40%
2 | Cc1c(C)c2c(c(C)c1O)CCC(C)(CCc1ccccc1)O2 (stereo not shown) [Example 56, 3,4-Dihydro-2,5,7,8-tetramethyl-2-(2-phenylethyl)-2H-1-benzopyran-6-ol] | 110 nM | 64%
